According to patent publication US20220388972A1, “CHROMAN-4-ONE DERIVATIVES FOR THE TREATMENT AND PROPHYLAXIS OF HEPATITIS B VIRUS INFECTION” (Hoffmann-La Roche Inc., priority 2018, published 2022):

Tests used:
[1] = system: HBV cccDNA (HBeAg as surrogate marker) in HepDES19 cells; assay: Engineered HepDES19 primary screen assay (HBeAg as surrogate marker for cccDNA); format: cell-based; conditions: Hepatitis B virus, HepDES19, 120 h
Source text: The assay was employed to screen for cccDNA inhibitors. HepDES19 is a cccDNA-producing cell line. In this cell line, HBeAg in the cell culture supernatant as surrogate marker, as HBeAg production depends on cccDNA level and activity. HepDES19 is an engineered cell line which contains a 1.1 unit length HBV genome, and pgRNA transcription from the transgene is controlled by Tetracycline (Tet). In the absence of Tet, pgRNA transcription will be induced, but HBV e antigen (HBeAg) could not be produced from this pgRNA due to very short leader sequence before the HBeAg start codon and the start codon is disrupted. Only after cccDNA is formed, the missing leader sequence and start codon mutation would be restored from the 3′-terminal redundancy of pgRNA, and then HBeAg could be synthesized. Therefore, HBeAg could be used as a surrogate marker for cccDNA (Zhou, T. et al., Antiviral Res. (2006), 72 (2), 116-124; Guo, H. et al., J. Virol. (2007), 81 (22), 12472-12484).
HepDES19 cells were seeded at 2×10^6 cells per T150 flask and cultured with the culture medium (Dulbecco's Modified Eagle Medium: Nutrient Mixture F-12 [DMEM-F12, Gibco Cat. 11320-82], 10% Fetal Bovine Serum [FBS, Clontech Cat. 631101], 0.1 mM Non-Essential Amino Acids Solution [NEAA, Gibco Cat. 11140-050], 50 μg/mL Penicillin-Streptomycin [PS, Invitrogen Cat. 15140-163], 500 μg/mL Geneticin [G418, Invitrogen Cat. 10131-027]) containing 3 μg/mL Tet (Sigma, Cat. 87128) for 5 days. Cells were then seeded at 4×10^6 cells per T150 in the same culture medium as described above in the absence of Tet for 8 days. Cells were then harvested and frozen at density of 2×10^6 cells per mL. For compound testing, the frozen cells were thawed and seeded into 96-well plates at a density of 6×10^4 cells per well. At 24 hours after seeding, half log serial dilutions of compounds made with Dimethyl sulfoxide (DMSO, Sigma, Cat. D2650) were further diluted with the same culture medium as described above before they were added to the cells to reach desired final compound concentrations and 1% DMSO concentration. Plates were then incubated at 37° C. for another 5 days before measurement of HBeAg level and cell viability. Intracellular HBeAg level were measured with enzyme-linked immunosorbent assay (ELISA) kit (Shanghai Kehua Diagnostic Medical Products Co., Ltd). Cell viability was assessed using Cell Counting Kit-8 (DonJindo, Cat. CK04-20). IC50 values were derived from the dose-response curve using 4 parameters logistic curve fit method.
The compounds of the present invention were tested for their capacity to inhibit extracellular HBeAg level as described herein.

[2] = system: HBV (extracellular HBsAg) in primary human hepatocytes; assay: Cryopreserved primary human hepatocytes (PHH) HBV infection assay, HBsAg; format: cell-based; conditions: Hepatitis B virus, Hepatocyte, 216 h, HBV-infected cryopreserved PHH, 9 days post-compound treatment, CLIA
Procedure: This assay is used to confirm the anti-HBV effect of the compounds in HBV PHH infection assay. Cryopreserved PHH (BioreclamationIVT, Lot YJM) was thawed at 37° C. and gently transferred into pre-warmed InVitroGRO HT medium (BioreclamationIVT, Cat. S03317).
The mixture was centrifuged at 70 relative centrifugal force (RCF) for 3 minutes at RT, and the supernatant was discarded. Pre-warmed InVitroGRO CP medium (BioreclamationIVT, Cat #S03316) was added to the cell pellet to gently re-suspend cells. The cells were seeded at the density of 5.8×10^4 cells per well to collagen I coated 96-well plate (Gibco, Cat. A1142803) with the InVitroGRO CP medium. All plates were incubated at 37° C. with 5% CO2 and 85% humidity.
At 20 hours after plating, the medium was changed to PHH culture medium (Dulbecco's Modified Eagle Medium (DMEM)/F12 (1:1) (Gibco, Cat. 11320-033), 10% fetal bovine serum (Gibco Cat. 10099141), 100 U/mL penicillin, 100 μg/mL streptomycin (Gibco, Cat. 151401-122), 5 ng/mL human epidermal growth factor (Invitrogen Cat. PHG0311L), 20 ng/mL dexamethasone (Sigma, Cat. D4902) and 250 ng/mL human recombinant insulin (Gibco, Cat. 12585-014)). And the cells were incubated at 37° C. with 5% CO2 and 85% humidity for 4 hours. The medium was then changed to pre-warmed PHH culture medium containing 4% polyethylene glycol (PEG) MW8000 (Sigma, Cat. P1458-50 ML) and 1% DMSO (Sigma, Cat. D2650). 5.8×10^6 genomic equivalents of HBV were added into the medium.
At 24 hours' post-infection, the cells were gently washed with PBS and refreshed with PHH culture medium supplemented with 1% DMSO, and 0.25 mg/mL Matrix gel (Corning, Cat. 356237) at 200 μL per well. All plates were immediately placed in at 37° C. CO2 incubator.
24 hours later, serial dilutions of compounds made with DMSO were further diluted with the same culture medium (PHH culture medium supplemented with 1% DMSO and 0.25 mg/mL Matrix gel as described above) before they were added to the cells to reach desired final compound concentrations and 1% DMSO concentration. The medium containing the compounds were refreshed every three days.
At 9 days' post-compound treatment, extracellular HBsAg level were measured with Chemiluminescence Immuno Assay (CLIA) kit (Autobio, HBsAg Quantitative CLIA).
HBsAg IC50 and HBV DNA IC50 values were derived from the dose-response curve using 4 parameters logistic curve fit method. The compounds of formula (I) have HBsAg IC50<20 μM, particularly <1 μM; and HBV DNA IC50<50 μM.

SMILES: O=C(O)CCOc1cc(OC(F)(F)F)ccc1C1CC(=O)c2cccc(Cl)c2O1 (centres unmarked) [Example 13, 3-[2-(8-chloro-4-oxo-chroman-2-yl)-5-(trifluoromethoxy)phenoxy]propanoic Acid]
- IC50 [1]: 390 nM
- IC50 [2]: 6.86 µM

SMILES: O=C(O)CCOc1cc(C(F)(F)F)ccc1C1CC(=O)c2cc(F)cc(Cl)c2O1 (centres unmarked) [Example 3, 3-[2-(8-chloro-6-fluoro-4-oxo-chroman-2-yl)-5-(trifluoromethyl)phenoxy]propanoic Acid]
- IC50 [1]: 5590 nM
- IC50 [2]: 11.2 µM

SMILES: COc1cc(C2CC(=O)c3cccc(Cl)c3O2)c(OCCC(=O)O)cc1C(F)(F)F (centres unmarked) [Example 11, 3-[2-(8-chloro-4-oxo-chroman-2-yl)-4-methoxy-5-(trifluoromethyl)phenoxy]propanoic Acid]
- IC50 [1]: 5140 nM
- IC50 [2]: 8.34 µM

SMILES: O=C(O)CCOc1cc(C(F)(F)F)ccc1C1CC(=O)c2cccc(Cl)c2O1 (centres unmarked) [Example 1, 3-[2-(8-chloro-4-oxo-chroman-2-yl)-5-(trifluoromethyl)phenoxy]propanoic Acid]
- IC50 [1]: 730 nM
- IC50 [2]: 5.31 µM

SMILES: O=C(O)CCOc1cc(C(F)(F)F)ccc1C1CC(=O)c2ccc(F)c(Cl)c2O1 (centres unmarked) [Example 2, 3-[2-(8-chloro-7-fluoro-4-oxo-chroman-2-yl)-5-(trifluoromethyl)phenoxy]propanoic Acid]
- IC50 [1]: 1970 nM
- IC50 [2]: 4.41 µM

SMILES: COCCCOc1cc(C(F)(F)F)ccc1C1CC(=O)c2ccc(F)c(Cl)c2O1 (centres unmarked) [Example 32, 8-chloro-7-fluoro-2-[2-(3-methoxypropoxy)-4-(trifluoromethyl)phenyl]chroman-4-one]
- IC50 [1]: 1930 nM
